Measurements: the NIST ThermoML archive (doi:10.1021/acs.jced.8b00110)

Assay: xn = mol fraction of the nth substance listed
Details: Liquid, phase equilibration, x1 = 0.05

Row | SMILES | binary diffusion coefficient (303.2 K) [m2/s] | binary diffusion coefficient (313.1 K) [m2/s] | binary diffusion coefficient (323.2 K) [m2/s] | binary diffusion coefficient (333.2 K) [m2/s] | binary diffusion coefficient (343.2 K) [m2/s]
1 | FC(F)(F)/C=C/Cl [(E)-1-chloro-3,3,3-trifluoroprop-1-ene] + CCCCCC[n+]1ccn(C)c1.O=S(=O)([N-]S(=O)(=O)C(F)(F)F)C(F)(F)F | 2.9e-10 | 3.8e-10 | 4.1e-10 | 5.7e-10 | 8.3e-10
2 | FC(F)(F)/C=C/Cl [(E)-1-chloro-3,3,3-trifluoroprop-1-ene] + CCCCCCn1cc[n+](C)c1.F[B-](F)(F)F | 3.3e-10 | 4.6e-10 | 6.1e-10 | 9.6e-10 | 1.68e-09
3 | FC(F)(F)/C=C/Cl [(E)-1-chloro-3,3,3-trifluoroprop-1-ene] + CCCCCCn1cc[n+](C)c1.O=S(=O)([O-])C(F)(F)F | 5.2e-10 | 7.8e-10 | 1.04e-09 | 1.69e-09 | 2.62e-09
